Results published in PMC8776730 (Nature Communications, 2022).

Legend:
[1] = test system: MIA PaCa-2 cells; test: Cellular imaging (CLSM) of FITC-labelled molecules; format: cell-based; settings: FITC-labelled molecules, MIA PaCa-2 cells, 1 h incubation, CLSM
Description: To further confirm this hypothesis, the M1 and M2 were equally labeled by FITC for cell imaging (Fig. 5b). To simulate the dynamic physiological condition, the cell culture medium was replaced every 15 min. After 1 h of incubation with M1 and M2 at the same molecule molar concentration, there occurred significant differences between the two molecules (Fig. 5c). […] The huge difference can be explained by the fact that the secondary assembly rate broke the balance between the targeted ligand and receptor, and thus tended to a stable assembly interaction. The retention efficiency depended on the assembly rate constant Ka. Meanwhile, the rapid dynamic assembly of BIVA probe in situ around the cell membrane, and contributed to the efficient formation and retention of nanofibers on the cell profile. When the incubation time was delayed up to 2 h, some components could be endocytosed into the cells, but most of them were found on the membranes (Supplementary Fig. 18). […] Then, the isolated cells were collected and lysed, the extracted cell membrane fragments were stained with ThT. […] In order to verify the influence of the addition of the targeting module of the probe molecules, we explored the imaging of R-M1 and M4 on cells.
(§1) Fig. 5 The BIVA effect with enhanced targeting to pancreatic tumor cell for boundaries imaging. a Illustration of BIVA effect: active targeting and assembly/aggregate induced retention (AIR) effect. b Chemical structure of FITC labeling. c 2D and 3D confocal images of M2 with active targeting property and M1 with BIVA effect on MIA PaCa-2 cells after incubation for 1 h. d The distribution of M1 on MIA PaCa-2 cell. e ThT staining of the lysed cell membrane of MIA PaCa-2. f, Illustration of migration inhibition after treated by BIVA probe. g The image of the migrated cells after treatment of PBS (blank), M2, M4, and M1. Scale bar: 100 μm. h The pie diagram of quantitative statistical calculation of the migrated cells (blue) in different groups. The blank control was set as 100% migrated cells.
MIA PaCa-2 cells were digested with trypsin, counted with cell counting plate, diluted to 1 × 10^4 with DMEM medium, and 1 mL to 1 cm diameter confocal microscope dish was taken. The cells were incubated in […] atmosphere for 24 h. The medium containing M1 and M2 (50 μM) was replaced and incubated with the cells for 2 h. The cells were washed with PBS for 3 times. CLSM (Zeiss 710) was used to image cells under 40 × objective, excitation = 488 nm, and emission >520 nm.
Supplementary Fig. 19 ∣ CLSM images of Miapaca-2 cells treated with different molecules or M1 under different conditions. […]

[2] = test system: orthotopic pancreatic tumor (MIA PaCa-2); test: Signal in small orthotopic tumor area versus healthy spleen area; format: in vivo; settings: orthotopic pancreatic tumor mice, i.v. 16 mg/kg, 12 h
Description: To evaluate the imaging property of BIVA probe, the orthotopic pancreatic tumor mice model was built. After intravenous injected M1 and M2 molecules with a dose of 16 mg/kg for 12 h, the mice were sacrificed. […] Then, all the important organs were dissected for ex vivo imaging. […] Upon the individual differences, we validated 6 mice under surgery to induce orthotopic tumor in pancreatic head. […] As known, the FAP-α was a membrane located protein, overexpressed on tumor associate fibroblast cell and pancreatic cell surface.

[3] = test system: MIA PaCa-2 cells; test: Transwell migration assay; format: cell-based; settings: for migrated cells (Fig S20): MIA PaCa-2 cells
Description: as §1
In order to further understand the contribution of the active targeting and AIR effect during locating of the cells, the cell transwell experiment was used to quantitively evaluate interference of the cell migration based on M1, M2, and M4 (Fig. 5f). As expected, untreated cells were easy to migrate to the lower chamber, while the cells treated with active targeting molecule M2 and assembled molecule M4, the migration of cell were reduced. Under the same molar concentration, the M1 treatment group had the most inference on cell migration (Fig. 5g). […] Based on those results, we speculate M1 can be more enriched in the tumor site and form fibers through assembly to inhibit tumor cell migration compared to M2 and M4 which have no ability to target and adhere on the cell membrane.
Transwell migration assay occurred in chemotaxis chambers containing 24 wells. […] Bottom chambers contained DMEM medium containing 10% FBS. After 24 h of treatment with M1, M2, and M4 (150 μM), we fixed cells using 4% paraformaldehyde and stained with 0.25% crystal violet solution. The stained cells were counted using a microscope.
Supplementary Fig. 20∣ The quantitative results of the migrated cells after treatment of PBS (blank), M2, […] and
M1 (Fig 5g). The mean of results of fiveparallel experiments is shown and data were expressed as mean ± SD (n=5).
pM1 = 5.85E-06, pM2 = 5.94E-05, pM4 = 3.16 E-04, Statisticalanalysis: one-way ANOVA followed by post hoc Tukey’s
(1 picture or pasted object on this page, not shown here)

[4] = test system: MIA PaCa-2 tumor; settings: mouse, in vivo, 16 mg/kg
Description: In order to reduce systemic error and individual difference, we constructed the subcutaneous pancreatic cancer model in mice for quantitatively calculating of the metabolic data.
All the animal experiments were performed in accordance with the Guide for the Care and Use of Laboratory Animals approved by the Committee for Animal Research of the National Center for Nanoscience and Technology. The MIA PaCa-2 tumor-bearing mice were intravenously injected with ICG, M1 and M2 (16 mg/kg), respectively for in vivo fluorescence imaging with in vivo spectrum imaging system. Finally, mice were sacrificed to collect the major organs and tumors for ex vivo fluorescence imaging.

Row | Substance | fluorescence signal on the cell membrane [1] | fluorescence signal on tumor relative to surrounding spleen tissue (signal-to-background) [2] | emigrate (migrated cells relative to blank) ([3]; MIA PaCa-2, 150 μM, 24 h, blank control = 1) | migrated cells (Fig S20) ([3]; averge of groups 1-3) | migrated cells (Fig S20) ([3]; group 1) | migrated cells (Fig S20) ([3]; group 2) | migrated cells (Fig S20) ([3]; group 3) | AUC 0-120 h in tumor tissue relative to M2 [4] | reduction of tumor fluorescence signal between 12 h and 120 h [4] | time to peak of tumor signal [4] | retention in tumor lasted ([4]; iv)
1 | mPEG-GPAKLVFFGC(IR783)GRGD [M1] | higher fluorescence retention rate on the cell membrane | over 9 folds | 0.3109 | 285.333 | 285 | 302 | 269 | 3.6 times | 27.6% | ~12 h | up to 96 h
2 | mPEG-GPAKLVFFGCGRGD [M3, the non-labeling molecule of M1 (no IR783)] | – | – | – | 484.667 | 483 | 456 | 515 | – | – | – | –
